Our source for the MIC values is US5804577A, “Cephalosporin derivatives” (Hoffmann-La Roche Inc., priority 1995, dated 1998).

What all share (assay): MIC by agar dilution method in Mueller Hinton agar
What all share (type): cell-based
(In agar dilution the substance is mixed into plates at graded concentrations.)

One experiment has as its system Acinetobacter sp. 51-156. To be noted: SP.51156. On the procedure:
(§1) In vitro activity was determined by minimum inhibitory concentration in a microorganism spectrum by the agar dilution method in Mueller Hinton agar.

For another experiment, the system named is B. fragilis ATCC25285. The note with it: Bacteroides fragilis. On the procedure: as §1
Another experiment relates to C. difficile ZH1. To be noted: Clostridioides difficile, ZH1. On the procedure:
as §1

The subject of the next experiment is C. freundii 43. The note with it: Citrobacter freundii, 43. Here is the method:
as §1

For another experiment, the system named is E. cloacae 908R. The note with it: Enterobacter cloacae. On the procedure: as §1
The test system of the next experiment is E. cloacae 908SSi. To be noted: Enterobacter cloacae, 908SSI. Here is the method:
as §1

In another experiment the test system is E. faecalis 6. To be noted: Enterococcus faecalis. On the procedure: as §1
The next experiment has as its system H. influenzae 1. To be noted: Haemophilus influenzae. Here is the method:
as §1

For the next experiment, the system named is L. monocytogenes BK23. To be noted: Listeria monocytogenes, BK23. On the procedure: as §1
Another experiment relates to M. catarrhalis RA21. The note with it: Moraxella catarrhalis. On the procedure: as §1
A further experiment deals with P. aeruginosa 27853. The note with it: Pseudomonas aeruginosa. On the procedure:
as §1

Experiment [1] deals with P. asaccharolyticus 29743. To be noted: Peptoniphilus asaccharolyticus. Here is the method: as §1
The next experiment concerns P. vulgaris 1028. The note with it: Proteus vulgaris. Here is the method:
as §1

Another experiment relates to S. agalactiae QK44. To be noted: Streptococcus agalactiae. Here is the method:
as §1

The subject of another experiment is S. aureus 6538. To be noted: Staphylococcus aureus, 6538. On the procedure: as §1
The subject of a further experiment is S. aureus 734 MRSA. To be noted: Staphylococcus aureus, MRSA. On the procedure:
as §1

Another experiment deals with S. marscescens 69438. On the procedure: as §1
In the next experiment the test system is S. pneumoniae Q19. The note with it: Streptococcus pneumoniae. On the procedure: as §1
Another experiment relates to S. viridans group 016. The note with it: Streptococcus viridans, GROUP016. On the procedure:
as §1

The next experiment deals with X. maltophilia 1AC739. The note with it: Stenotrophomonas maltophilia. On the procedure: as §1
Another experiment has as its system C. freundii 902. To be noted: Citrobacter freundii. Here is the method: as §1
Another experiment concerns E. coli 25922. To be noted: Escherichia coli, 25922. Here is the method: as §1
In another experiment the test system is K. pneumoniae 418. To be noted: Klebsiella pneumoniae. On the procedure:
as §1

Another experiment relates to P. mirabilis 2117. To be noted: Proteus mirabilis. Here is the method: as §1
Another experiment deals with M. morganii 6H-137. To be noted: Morganella morganii, 6H137. Here is the method:
as §1

Setting [2] is: K. pneumoniae 418, read-out: MIC.
The mark [3] stands for this setting: P. aeruginosa 27853, read-out: MIC.

Values after ≈ are worked out from the molar mass of the structure shown. Read-outs that look alike come from different tables or passages of the source.

On to `Nc1nc(/C(=N/O)C(=O)N[C@@H]2C(=O)N3C(C(=O)O)=C(/C=C4\CCN(c5ccc(O)cc5)C4=O)CS[C@H]23)cs1` [A, (6R,7R)-7-[(Z)-2-(2-Amino-thiazol-4-yl)-2-hydroxyimino-acetylamino]-3-[(E)-1-(4-hydroxy-phenyl)-2-oxo-pyrrolidin-3-ylidenemethyl]-8-oxo-5-thia-1-azabicyclo[4.2.0]oct-2-ene-2-carboxylic acid], for which the MIC in the experiment on Acinetobacter sp. 51-156 (Acinetobacter sp. 51-156, read-out: MIC) was found to be 16 µg/mL (≈ 28.7 µM); in the experiment on B. fragilis ATCC25285 (ATCC25285), 4 µg/mL (≈ 7.19 µM); against C. difficile ZH1 it was 8 µg/mL (≈ 14.4 µM); against C. freundii 43, 4 µg/mL (≈ 7.19 µM); in the experiment with E. cloacae 908R (E. cloacae 908R, read-out: MIC), 16 µg/mL (≈ 28.7 µM); in the experiment with E. cloacae 908SSi, 0.25 µg/mL (≈ 0.449 µM). Besides, the MIC stood at 0.5 µg/mL (≈ 0.898 µM) against E. faecalis 6 (6); 0.25 µg/mL (≈ 0.449 µM) in the experiment on H. influenzae 1; 4 µg/mL (≈ 7.19 µM) in the experiment with L. monocytogenes BK23; 16 µg/mL (≈ 28.7 µM) in the experiment on M. catarrhalis RA21 (M. catarrhalis RA21, read-out: MIC); 4 µg/mL (≈ 7.19 µM) in the experiment with P. aeruginosa 27853 (27853); 0.25 µg/mL (≈ 0.449 µM) in [1]. For the same compound, the MIC with P. vulgaris 1028 (P. vulgaris 1028, read-out: MIC) worked out at 32 µg/mL (≈ 57.5 µM); against S. agalactiae QK44 it was 0.25 µg/mL (≈ 0.449 µM); in the experiment with S. aureus 6538, 0.25 µg/mL (≈ 0.449 µM); in the experiment with S. aureus 734 MRSA, 4 µg/mL (≈ 7.19 µM); against S. marscescens 69438, 0.5 µg/mL (≈ 0.898 µM); with S. pneumoniae Q19, 0.12 µg/mL (≈ 0.216 µM). In addition, the MIC was 0.25 µg/mL (≈ 0.449 µM) in the experiment on S. viridans group 016 and more than 32 µg/mL in the experiment on X. maltophilia 1AC739 (X. maltophilia 1AC739, read-out: MIC).

Take `Nc1nc(/C(=N/O)C(=O)N[C@@H]2C(=O)N3C(C(=O)O)=C(/C=C4\CCN(c5cccc([N+](=O)[O-])c5)C4=O)CS[C@H]23)cs1` [B]: the MIC was determined as 16 µg/mL (≈ 27.3 µM) against Acinetobacter sp. 51-156 (Acinetobacter); 2 µg/mL (≈ 3.42 µM) with B. fragilis ATCC25285 (ATCC25285); 16 µg/mL (≈ 27.3 µM) in the experiment on C. difficile ZH1; 1 µg/mL (≈ 1.71 µM) with C. freundii 43; 0.12 µg/mL (≈ 0.205 µM) against C. freundii 902 (902); 2 µg/mL (≈ 3.42 µM) against E. cloacae 908R (908R). For the same compound, the MIC was 0.25 µg/mL (≈ 0.427 µM) in the experiment on E. cloacae 908SSi; 0.12 µg/mL (≈ 0.205 µM) in the experiment on E. coli 25922; 0.25 µg/mL (≈ 0.427 µM) in the experiment with E. faecalis 6 (E. faecalis 6, read-out: MIC); 0.5 µg/mL (≈ 0.854 µM) with H. influenzae 1; 0.25 µg/mL (≈ 0.427 µM) in the experiment with K. pneumoniae 418 (setting [2]); 4 µg/mL (≈ 6.83 µM) against L. monocytogenes BK23. The MIC with M. catarrhalis RA21 (RA21) was more than 16 µg/mL; in the experiment on P. aeruginosa 27853 (27853) it was 16 µg/mL (≈ 27.3 µM); against P. mirabilis 2117 (2117) it was 0.12 µg/mL (≈ 0.205 µM); in the experiment on P. vulgaris 1028 (1028), 16 µg/mL (≈ 27.3 µM); in the experiment with S. agalactiae QK44, 0.5 µg/mL (≈ 0.854 µM); with S. aureus 6538 it was 0.25 µg/mL (≈ 0.427 µM). In addition, the MIC in the experiment with S. aureus 734 MRSA was 4 µg/mL (≈ 6.83 µM); against S. marscescens 69438, 1 µg/mL (≈ 1.71 µM); in the experiment with S. viridans group 016 it was 1 µg/mL (≈ 1.71 µM); in the experiment on X. maltophilia 1AC739 (1AC739), more than 32 µg/mL.

For the compound `Nc1nc(/C(=N/O)C(=O)N[C@@H]2C(=O)N3C(C(=O)O)=C(/C=C4\CCN(Cc5nc6ccccc6[nH]5)C4=O)CS[C@H]23)cs1` [H, (6R,7R)-7-[(Z)-2-(2-Amino-thiazol-4-yl)-2-hydroxyimino-acetylamino]-3-[(E)-1-(1H-benzimidazol-2-ylmethyl)-2-oxo-pyrrolidin-3-ylidenemethyl]-8-oxo-5-thia-1-aza-bicyclo[4.2.0]oct-2-ene-2-carboxylic acid trifluoracetate (1:1:1)], the MIC against Acinetobacter sp. 51-156 (Acinetobacter) is more than 32 µg/mL; with B. fragilis ATCC25285 (B. fragilis ATCC25285, read-out: MIC) it was 8 µg/mL (≈ 13.5 µM); against C. difficile ZH1, 16 µg/mL (≈ 26.9 µM); against C. freundii 43, 2 µg/mL (≈ 3.36 µM); in the experiment on C. freundii 902 (C. freundii 902, read-out: MIC), 0.12 µg/mL (≈ 0.202 µM); in the experiment with E. cloacae 908R (908R), 4 µg/mL (≈ 6.73 µM). In addition, the MIC came out at 0.5 µg/mL (≈ 0.841 µM) in the experiment with E. cloacae 908SSi; 0.12 µg/mL (≈ 0.202 µM) against E. coli 25922; 2 µg/mL (≈ 3.36 µM) in the experiment with E. faecalis 6 (6); 0.12 µg/mL (≈ 0.202 µM) in the experiment on K. pneumoniae 418 (setting [2]); 4 µg/mL (≈ 6.73 µM) against L. monocytogenes BK23; 4 µg/mL (≈ 6.73 µM) in the experiment with M. catarrhalis RA21 (RA21). The MIC in the experiment on M. morganii 6H-137 is 0.25 µg/mL (≈ 0.42 µM); in the experiment on P. aeruginosa 27853 (setting [3]), more than 32 µg/mL; in experiment [1], 1 µg/mL (≈ 1.68 µM); in the experiment with P. mirabilis 2117 (P. mirabilis 2117, read-out: MIC), 0.25 µg/mL (≈ 0.42 µM); against P. vulgaris 1028 (1028), 16 µg/mL (≈ 26.9 µM); against S. agalactiae QK44 it was 0.25 µg/mL (≈ 0.42 µM). In addition, the MIC against S. aureus 6538 is 1 µg/mL (≈ 1.68 µM); with S. aureus 734 MRSA it was 8 µg/mL (≈ 13.5 µM); with S. marscescens 69438 it was 1 µg/mL (≈ 1.68 µM); against S. viridans group 016, 0.5 µg/mL (≈ 0.841 µM); in the experiment with X. maltophilia 1AC739 (1AC739), more than 32 µg/mL.

With `C=CC1=C(C(=O)O)N2C(=O)[C@@H](NC(=O)/C(=N\O)c3csc(N)n3)[C@H]2SC1` [I, [6R[6a,7b(Z)]7-(2-Amino-4-thiazolyl)[(hydroxyimino)]acetyl]amino3-ethenyl 8-oxo-5-thia-1-azabicyclo-[4.2.0]oct2-ene-2-carboxylic acid, reference compound], the MIC in the experiment on Acinetobacter sp. 51-156 (Acinetobacter) was more than 32 µg/mL; in the experiment with C. freundii 43, more than 32 µg/mL; against C. freundii 902 (902) it was 16 µg/mL (≈ 40.5 µM); against E. cloacae 908R (908R), more than 32 µg/mL; in the experiment with E. cloacae 908SSi, 32 µg/mL (≈ 80.9 µM); against E. coli 25922 it was 0.25 µg/mL (≈ 0.632 µM). Moreover, the MIC against E. faecalis 6 (6) turned out to be 8 µg/mL (≈ 20.2 µM); with H. influenzae 1, 0.5 µg/mL (≈ 1.26 µM); in the experiment on K. pneumoniae 418 (418), 0.12 µg/mL (≈ 0.303 µM); with L. monocytogenes BK23, 16 µg/mL (≈ 40.5 µM); in the experiment on M. catarrhalis RA21 (RA21), 1 µg/mL (≈ 2.53 µM); against M. morganii 6H-137 it was 8 µg/mL (≈ 20.2 µM). Further, the MIC was more than 32 µg/mL in the experiment with P. aeruginosa 27853 (setting [3]); 0.12 µg/mL (≈ 0.303 µM) in the experiment with P. mirabilis 2117 (2117); 1 µg/mL (≈ 2.53 µM) in the experiment on P. vulgaris 1028 (1028); 0.25 µg/mL (≈ 0.632 µM) in the experiment with S. agalactiae QK44; 0.5 µg/mL (≈ 1.26 µM) against S. aureus 6538; more than 32 µg/mL in the experiment with S. aureus 734 MRSA. The MIC with S. marscescens 69438 is 16 µg/mL (≈ 40.5 µM); against S. pneumoniae Q19, 0.25 µg/mL (≈ 0.632 µM); with S. viridans group 016, 2 µg/mL (≈ 5.06 µM); in the experiment with X. maltophilia 1AC739 (1AC739), more than 32 µg/mL.
